# Results published in patent publication US5686460A, “Carbocyclic diarylmethylene derivatives, processes for their preparation and their uses in therapeutics” (Laboratoires UPSA, priority 1996, dated 1997).
# Experiments:
# [1] = tested on: carrageenin edema; assay: carrageenin edema test (anti-inflammatory activity); format: in vivo; conditions: rat, oral, 100 mg/kg, 3 hours, n=6 animals per dose
# Experimental: (§1) The anti-inflammatory activity of the compounds of the Examples was evaluated by the carrageenin edema method and the analgesic activity was evaluated by the kaolin arthritis method.
# Anti-inflammatory activity:
# The anti-inflammatory activity is evaluated in the rat by the carrageenin edema test. The product is administered orally at a rate of 2.5 ml/100 g (n=6 animals per dose) 2 h 30 rain after oral hyperhydration (2.5 ml/100 g). One hour after administration of the product, the edema is induced by the plantar subcutaneous injection of 2% aqueous carrageenin solution. The percentage inhibition of the volume of the edema is calculated after 3 hours by measurement of the volume of the paw with a mercury plethysmograph.
# [2] = tested on: kaolin arthritis; assay: kaolin arthritis test (analgesic activity); format: in vivo; conditions: rat, oral, 100 mg/kg, 5 h 30 after administration, n=10 animals per dose
# Experimental: as §1
# The analgesic activity is evaluated in the rat by the kaolin arthritis test. Thirty minutes after the intra-articular administration of 10% aqueous kaolin suspension, the product is administered orally at a rate of 1 ml/100 g (n=10 animals per dose). The percentage inhibition of the animal's pain response (grading of the gait) is calculated 5 h 30 rain after administration of the product.
# [3] = target: T1, COX-2 (Ovis aries, UniProt P79208); assay: Inhibition of the COX-2 enzymatic activity (PGE2 determined by EIA); format: biochemical, ewe; conditions: arachidonic acid 4 μM, mean±standard deviations of 4 determinations; for inhibition at 10 µM: 10^-5 M; for inhibition at 0.1 µM: 10^-7 M
# T1 construct: purified enzyme from ewe placenta; from tissue; host or cells: ewe placenta
# T1 sequence (P79208 17-603): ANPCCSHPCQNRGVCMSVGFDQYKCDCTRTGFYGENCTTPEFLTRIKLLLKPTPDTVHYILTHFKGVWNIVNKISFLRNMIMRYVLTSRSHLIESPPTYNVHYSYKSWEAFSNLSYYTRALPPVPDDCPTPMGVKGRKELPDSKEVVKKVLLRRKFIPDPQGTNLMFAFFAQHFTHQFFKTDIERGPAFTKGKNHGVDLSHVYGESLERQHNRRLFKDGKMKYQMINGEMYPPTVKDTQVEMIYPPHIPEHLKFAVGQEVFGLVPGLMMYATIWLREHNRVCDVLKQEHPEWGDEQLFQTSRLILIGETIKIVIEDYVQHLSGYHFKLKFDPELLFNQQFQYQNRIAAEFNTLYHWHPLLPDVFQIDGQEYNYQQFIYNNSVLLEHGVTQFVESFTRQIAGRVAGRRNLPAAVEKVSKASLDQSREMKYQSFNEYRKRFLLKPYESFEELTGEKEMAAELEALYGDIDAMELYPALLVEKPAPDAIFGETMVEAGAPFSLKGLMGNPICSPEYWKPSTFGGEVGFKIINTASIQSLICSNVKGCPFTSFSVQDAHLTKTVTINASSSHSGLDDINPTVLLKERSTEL
# Experimental: (§2) Inhibition of the COX-1 and COX-2 enzymatic activities The molecule studied is preincubated for 10 minutes at 25° C. with 2 U of COX-1 (purified enzyme from ram seminal vesicles) or 1 U of COX-2 (purified enzyme from ewe placenta). Arachidonic acid (6 μM for COX-1, 4 μM for COX-2) is added to the reaction medium and incubation is carried out for 5 minutes at 25° C. When incubation has ended, the enzymatic reaction is stopped by the addition of 1N HCl and the PGE2 produced is determined by EIA. The results are expressed as the percentage inhibition of the COX-1 and COX-2 enzymatic activities and correspond to mean±standard deviations of the average of 4 determinations.
# [4] = tested on: COX-1; assay: Inhibition of the COX-1 enzymatic activity (PGE2 determined by EIA); format: biochemical, ram; conditions: 10^-5 M; arachidonic acid 6 μM; mean±standard deviations of 4 determinations
# Experimental: as §2
inhibition at 10 µM [3] [%],inhibition at 0.1 µM [3] [%],SMILES,Anti-inflammatory activity % inhibition (of the volume of the edema) [1] [%],"Analgesic activity % inhibition (of the animal's pain response, grading of the gait) [2] [%]",% inhibition of the COX-1 activity [4] [%]
65 ± 2,18 ± 8,"CS(=O)(=O)c1ccc(C(=C2CCCC2)c2ccc(Cl)nc2)cc1 [Example 6, 2-Chloro-5-[(cyclopentylidene)(4-methylsulfonylphenyl)methyl]-pyridine]",45.8 ± 9.8,55.0 ± 15.7,0 ± 0
66 ± 4,21 ± 4,"CS(=O)(=O)c1ccc(C(=C2CCCC2)c2ccc(F)cc2)cc1 [Example 3, 4-[(Cyclopentylidene)(4-fluorophenyl)methyl]methylsulfonylbenzene]",,,
57 ± 3,,"CS(=O)(=O)c1ccc(C(=C2C=CC=C2)c2ccc(F)cc2)cc1 [Example 12, 4-[(Cyclopenta-2,4-dienylidene)(4-fluorophenyl)methyl]methyl-sulfonylbenzene]",,,
